biological target: Nef-ASK1 interaction (UniProt P03404+Q99683); details: ATCC CRL-1573 cells co-transfected with Nef-ASK1g, 48 hours; ASK-1 alone 43.15, ASK-1 + Nef (background) 22.15, control 11.0
Procedure: HEK 293 cells were grown in Minimal Essential medium (low glucose, Sigma) supplemented with 10% fetal bovine serum, penicillin (100 units/ml), streptomycin (100 μg/ml) and Gentamycin (50 μg/ml) at 37° C. with 5% CO2. 1×10^5 cells were seeded per well in twenty four well plates, one day before transfection. Using commercially available ExGen 500 (fermentas) transfection reagent, all the required endotoxin free plasmid constructs were co-transfected into HEK 293 cells. 0.75 microgram of each plasmid and 5.0 micro liters per well ExGen 500 reagent were used. 48 h post transfection the cells were harvested and Luciferase activity was monitored using the Dual-Luciferase® Reporter assay kit (Promega). The data for basal control were used for the conversion of Luciferase activity to fold activation. As a positive control, the protein-protein interaction vectors pACTMyoD and pBIND-ID encoding the MyoD and ID control proteins, provided with the kit were used.
The ASK1g, h, i,j fragments alone and with Nef were transfected in ATCC CRL-1573™ cells. The transfected cells were cultured for 48 hours and were labeled with AnnexinV and PI staining for analyzing aspoptosis.
Inhibitors were designed from the crystal structure of Nef solved in our laboratory (Pankaj et al., 2011) The inhibitors were cultured with cells transfected will Nef, ASK1g and co-transfected with Nef-ASK1g. The cells after 48 hours were analysed for apoptosis using annexin V and PI staining.

In order of falling “% of Annexin V cells means apoptotic cells” value:
1. DEVGEANN [Peptide-3]  40.37%
2. GENNCLLH [Peptide-2]  24.96%
3. LHGMEDPE [Peptide-4]  23.0%
4. PVRPQVPLRP [Peptide-5]  22.45%
5. TPGPGVRYP [Peptide-1]  22.45%
